Each block holds one compound with its values, some of them ahead of it.
Tests used:
[1] = biological target: Insulin-like growth factor 1 receptor (Homo sapiens, UniProt P08069); experiment: Inhibition of IGF1R by HTRF assay
[2] = biological target: Vascular endothelial growth factor receptor 2 (Homo sapiens, UniProt P35968); experiment: Inhibition of VEGFR2 by HTRF assay
[3] = biological target: Hepatocyte growth factor receptor (Homo sapiens, UniProt P08581)
Description: Inhibition of c-Met by HTRF assay

[4] = biological target: Tyrosine-protein kinase JAK2 (Homo sapiens, UniProt O60674); experiment: Inhibition of JAK2
[5] = biological target: cAMP-dependent protein kinase catalytic subunit alpha (Homo sapiens, UniProt P17612); experiment: Inhibition of PKAalpha
[6] = biological target: Mitogen-activated protein kinase 9 (Homo sapiens, UniProt P45984); experiment: Inhibition of JNK2
[7] = biological target: Proto-oncogene tyrosine-protein kinase receptor Ret (Homo sapiens, UniProt P07949); experiment: Inhibition of RET
[8] = biological target: Macrophage-stimulating protein receptor (Homo sapiens, UniProt Q04912); experiment: Inhibition of RON by HTRF assay
[9] = biological target: Ribosomal protein S6 kinase beta-1 (Homo sapiens, UniProt P23443); experiment: Inhibition of p70S6K
[10] = biological target: Serine/threonine-protein kinase pim-2 (Homo sapiens, UniProt Q9P1W9); experiment: Inhibition of PIM2
[11] = biological target: Fibroblast growth factor receptor 1 (Homo sapiens, UniProt P11362); experiment: Inhibition of FGFRK
[12] = biological target: RAC-beta serine/threonine-protein kinase (Homo sapiens, UniProt P31751); experiment: Inhibition of PKBbeta
[13] = biological target: Tyrosine-protein kinase JAK1 (Homo sapiens, UniProt P23458); experiment: Inhibition of JAK1
[14] = biological target: Mast/stem cell growth factor receptor Kit (Homo sapiens, UniProt P10721); experiment: Inhibition of c-KIT
[15] = biological target: RAC-alpha serine/threonine-protein kinase (Homo sapiens, UniProt P31749); experiment: Inhibition of PKBalpha
[16] = biological target: Ribosomal protein S6 kinase alpha-5 (Homo sapiens, UniProt O75582); experiment: Inhibition of MSK1
[17] = biological target: Mitogen-activated protein kinase 3 (Homo sapiens, UniProt P27361); experiment: Inhibition of ERK1
[18] = biological target: Mitogen-activated protein kinase 14 (Homo sapiens, UniProt Q16539); experiment: Inhibition of p38alpha
[19] = biological target: Serine/threonine-protein kinase pim-1 (Homo sapiens, UniProt P11309); experiment: Inhibition of PIM1
[20] = biological target: Cyclin-dependent kinase 5/CDK5 activator 1 (Homo sapiens, UniProt Q00535)
Aurora kinase A = Aurora kinase A (Homo sapiens, UniProt O14965); experiment: Inhibition of aurora-1
Angiopoietin-1 receptor = Angiopoietin-1 receptor (Homo sapiens, UniProt Q02763); experiment: Inhibition of TIE2
[21] = biological target: Tyrosine-protein kinase JAK3 (Homo sapiens, UniProt P52333); experiment: Inhibition of JAK3

Ki [1]: 730 nM
Compound: CCCn1c(C)c(C(=O)Nc2ccc(Oc3ccnc4cc(OC)ccc34)cn2)c(=O)n1-c1ccccc1

Ki [2]: 2720 nM
Ki [1]: 42.7 nM
Compound: COc1ccc2c(Oc3ccc(NC(=O)c4c(C5CCOCC5)n(C)n(-c5ccccc5)c4=O)nc3)ccnc2c1

Ki [1]: 1800 nM
Compound: COc1ccc2c(Oc3ccc(NC(=O)c4c(CN5CCCC5)n(C)n(-c5ccccc5)c4=O)cc3F)ccnc2c1

Ki [1]: 1100 nM
Compound: COc1ccc2c(Oc3ccc(NC(=O)c4c(C)n(CCO)n(-c5ccccc5)c4=O)nc3)ccnc2c1

Ki [1]: 190 nM
Compound: COc1ccc2c(Oc3ccc(NC(=O)c4c(C5CCCO5)n(C)n(-c5ccccc5)c4=O)cc3F)ccnc2c1 (racemic)

Ki [1]: > 6600 nM
Compound: COc1ccc2c(Oc3ccc(NC(=O)c4c(CNC(=O)OC(C)(C)C)n(C)n(-c5ccccc5)c4=O)cc3F)ccnc2c1

Ki [2]: 78.9 nM
Ki [1]: 149 nM
Compound: COc1cc2nccc(Oc3ccc(NC(=O)c4c(C)n(C)n(-c5ccccc5)c4=O)cc3F)c2cc1Br

Ki [1]: 744 nM
Compound: COc1ccc2c(Oc3ccc(NC(=O)c4c(C)n(C[C@@H](C)O)n(-c5ccccc5)c4=O)cc3F)ccnc2c1

Ki [1]: 708 nM
Compound: CCn1c(C)c(C(=O)Nc2ccc(Oc3ccnc4cc(OC)ccc34)cn2)c(=O)n1-c1ccccc1

Ki [1]: 1330 nM
Compound: COc1ccc2c(Oc3ccc(NC(=O)c4c(C)n(CC(C)O)n(-c5ccccc5)c4=O)cc3F)ccnc2c1 (racemic)

Ki [1]: 915 nM
Compound: COc1ccc2c(Oc3ccc(NC(=O)c4c(C)n(CC(C)C)n(-c5ccccc5)c4=O)cc3F)ccnc2c1

Ki [2]: > 6600 nM
Ki [1]: 35.9 nM
Compound: COc1ccc2c(Oc3ccc(NC(=O)c4c(-c5ccncc5)n(C)n(-c5ccccc5)c4=O)nc3)ccnc2c1

Ki [1]: 1660 nM
Compound: COc1ccc2c(Oc3ccc(NC(=O)c4c(C)n(CC5CNC(=O)O5)n(-c5ccccc5)c4=O)cc3F)ccnc2c1 (stereo unspecified)

Ki [2]: 702 nM
Ki [1]: 93.6 nM
Compound: COc1ccc2c(Oc3ccc(NC(=O)c4c(C)n(C)n(-c5ccccc5)c4=O)c(OC)c3)ccnc2c1

Ki [2]: 2830 nM
Ki [1]: 27 nM
Compound: COc1ccc2c(Oc3ccc(NC(=O)c4c(-c5cccnc5)n(C)n(-c5ccccc5)c4=O)nc3)ccnc2c1

Ki [1]: 618 nM
Compound: COc1ccc2c(Oc3ccc(NC(=O)c4c(C)n(C)n(-c5ccccc5)c4=O)nc3)ccnc2c1

Ki [1]: 864 nM
Compound: COc1ccc2c(Oc3ccc(NC(=O)c4c(C)n(CCO)n(-c5ccccc5)c4=O)cc3F)ccnc2c1

Ki [1]: 249 nM
Compound: C=C(C)Cn1c(C)c(C(=O)Nc2ccc(Oc3ccnc4cc(OC)ccc34)c(F)c2)c(=O)n1-c1ccccc1

Ki [2]: > 6600 nM
Ki [1]: 948 nM
Compound: COc1ccc2c(Oc3ccc(NC(=O)c4c([C@@H]5CCCN5)n(C)n(-c5ccccc5)c4=O)nc3)ccnc2c1

Ki [1]: 1290 nM
Compound: COc1ccc2c(Oc3ccc(NC(=O)c4c(C)n(CC(C)O)n(-c5ccccc5)c4=O)nc3)ccnc2c1 (stereo unspecified)

Ki [1]: 144 nM
Compound: COc1ccc2c(Oc3ccc(NC(=O)c4c(C5CCOCC5)n(C)n(-c5ccccc5)c4=O)cc3F)ccnc2c1

Ki [1]: 70.2 nM
Compound: CCc1cc2c(Oc3ccc(NC(=O)c4c(C)n(C)n(-c5ccccc5)c4=O)cc3F)ccnc2cc1OC

Ki [2]: 35.9 nM
Ki [1]: 26.5 nM
Compound: COc1cc2nccc(Oc3ccc(NC(=O)c4c(C)n(C)n(-c5ccccc5)c4=O)c(Cl)c3)c2cc1OC

Ki [1]: 637 nM
Compound: COc1ccc2c(Oc3ccc(NC(=O)c4c(C)n(CC(O)C(C)C)n(-c5ccccc5)c4=O)cc3F)ccnc2c1 (stereo unspecified)

Ki [1]: 104 nM
Compound: COc1ccc2c(Oc3ccc(NC(=O)c4c(C)n(CC(O)CN)n(-c5ccccc5)c4=O)cc3F)ccnc2c1 (stereo unspecified)

Ki [2]: 4730 nM
Ki [1]: 87.7 nM
Compound: COc1ccc2c(Oc3ccc(NC(=O)c4c(-c5cnccn5)n(C)n(-c5ccccc5)c4=O)nc3)ccnc2c1

Ki [1]: 887 nM
Compound: COc1ccc2c(Oc3ccc(NC(=O)c4c(CN5CCCC5)n(C)n(-c5ccccc5)c4=O)nc3)ccnc2c1

Ki [1]: 887 nM
Compound: COc1ccc2c(Oc3ccc(NC(=O)c4c(C)n(CC(C)(C)O)n(-c5ccccc5)c4=O)cc3F)ccnc2c1

Ki [2]: 501 nM
Ki [1]: 30.9 nM
Compound: COc1ccc2c(Oc3ccc(NC(=O)c4c(-c5cc(C)on5)n(C)n(-c5ccccc5)c4=O)nc3)ccnc2c1

Ki [1]: 575 nM
Compound: CC[C@H](O)Cn1c(C)c(C(=O)Nc2ccc(Oc3ccnc4cc(OC)ccc34)c(F)c2)c(=O)n1-c1ccccc1

Ki [3]: 16.7 nM
Ki [2]: 1630 nM
Ki [1]: 217 nM
Compound: COc1ccc2c(Oc3cnc(NC(=O)c4c(C)n(C)n(-c5ccccc5)c4=O)nc3)ccnc2c1

Ki [1]: 3100 nM
Compound: COc1ccc2c(Oc3ccc(NC(=O)c4c(C(C)(C)N)n(C)n(-c5ccccc5)c4=O)cc3F)ccnc2c1

Ki [2]: 2240 nM
Ki [1]: 680 nM
Compound: COc1ccc2c(Oc3ccc(NC(=O)c4c([C@@H]5CCCN5)n(C)n(-c5ccccc5)c4=O)cc3F)ccnc2c1

Ki [1]: 1570 nM
Compound: COc1cc2nccc(Oc3ccc(NC(=O)c4c(C)n(C)n(-c5ccccc5)c4=O)cn3)c2cc1OC

Ki [2]: 1380 nM
Ki [1]: 18.5 nM
Compound: COc1ccc2c(Oc3ccc(NC(=O)c4c(-c5ccccn5)n(C)n(-c5ccccc5)c4=O)nc3)ccnc2c1

Ki [2]: 588 nM
Ki [1]: 24.8 nM
Compound: COc1ccc2c(Oc3ccc(NC(=O)c4c(-c5csc(C)n5)n(C)n(-c5ccccc5)c4=O)nc3)ccnc2c1

Ki [1]: 250 nM
Compound: COc1ccc2c(Oc3ccc(NC(=O)c4c(C5CCOC5)n(C)n(-c5ccccc5)c4=O)cc3F)ccnc2c1 (racemic)

Ki [2]: 541 nM
Ki [1]: 928 nM
Compound: COc1ccc2c(Oc3ccc(NC(=O)c4c(CN)n(C)n(-c5ccccc5)c4=O)cc3F)ccnc2c1

Ki [1]: 178 nM
Compound: COc1ccc2c(Oc3ccc(NC(=O)c4c(C)n(C)n(-c5ccccc5)c4=O)cc3F)ccnc2c1

Ki [1]: 2890 nM
Compound: COCCn1c(C)c(C(=O)Nc2ccc(Oc3ccnc4cc(OC)ccc34)cn2)c(=O)n1-c1ccccc1

Ki [1]: 419 nM
Compound: CCCn1c(C)c(C(=O)Nc2ccc(Oc3ccnc4cc(OC)ccc34)c(F)c2)c(=O)n1-c1ccccc1

Ki [1]: 872 nM
Compound: COc1ccc2c(Oc3ccc(NC(=O)c4c(C)n(CCN)n(-c5ccccc5)c4=O)cc3F)ccnc2c1

Ki [1]: 695 nM
Compound: COc1ccc2c(Oc3ccc(NC(=O)c4c(C)n(C[C@H](C)O)n(-c5ccccc5)c4=O)cc3F)ccnc2c1

Ki [1]: 146 nM
Compound: COc1cc2nccc(Oc3ccc(NC(=O)c4c(C)n(C)n(-c5ccccc5)c4=O)cc3F)c2cc1C

Ki [1]: 557 nM
Compound: CCn1c(C)c(C(=O)Nc2ccc(Oc3ccnc4cc(OC)ccc34)c(F)c2)c(=O)n1-c1ccccc1

IC50 [4]: 25 µM
IC50 [5]: 100 µM
IC50 [6]: 100 µM
IC50 [7]: 25 µM
IC50 [8]: 10 nM
IC50 [9]: 25 µM
IC50 [10]: 25 µM
IC50 [11]: 25 µM
IC50 [3]: 10 nM
Ki [3]: 1 nM
IC50 [12]: 25 µM
IC50 [13]: 25 µM
IC50 [14]: 10 µM
IC50 [15]: 10 µM
IC50 [16]: 100 µM
IC50 [17]: 100 µM
IC50 [18]: 100 µM
IC50 [19]: 25 µM
IC50 [20]: 100 µM
Compound: COc1ccc2c(Oc3ccc(NC(=O)c4c(C)n(CC(C)(C)O)n(-c5ccccc5)c4=O)nc3)ccnc2c1

IC50 [4]: 1 µM
IC50 (Aurora kinase A): 1000 nM
IC50 [9]: 1 µM
IC50 [10]: 25 µM
IC50 [11]: 1 µM
IC50 (Angiopoietin-1 receptor): 100 nM
IC50 [12]: 25 µM
IC50 [13]: 10 µM
IC50 [14]: 0.1 µM
IC50 [15]: 10 µM
IC50 [16]: 10 µM
IC50 [17]: 25 µM
IC50 [21]: 10 µM
IC50 [18]: 1 µM
IC50 [19]: 25 µM
Compound: COc1cc2nccc(Oc3ccc(NC(=O)c4c(C)n(C)n(-c5ccccc5)c4=O)cc3F)c2cc1OC

Ki [1]: 744 nM
Compound: CCN(C)Cc1c(C(=O)Nc2ccc(Oc3ccnc4cc(OC)ccc34)c(F)c2)c(=O)n(-c2ccccc2)n1C

Ki [1]: 233 nM
Compound: COc1cc2nccc(Oc3ccc(NC(=O)c4c(C)n(C)n(-c5ccccc5)c4=O)nc3)c2cc1OC
